The text below walks through data of US20020013264A1, “Neoglycan anticancer agents and uses thereof” (priority 1999, published 2002).

The test system of test [1] is multiple myeloma cell line. Nature of the test: Viability of a multiple myeloma cell line treated with nPG, EDAC modified GAG chains or native GAG chains. As to conditions: data not shown. It counts as cell-based. The source says: Synthetic proteoglycans termed neoproteoglycans (nPG), were produced by EDAC conjugation of the GAG chains heparin or chondroitin sulfate and a protein scaffold. Treatment of a multiple myeloma cell line with either nPG preparation or controls produced by EDAC modification of GAG chains alone reduced cell viability (data not shown). […] Therefore, neoglycans (neoglycans) consisting of EDAC modified heparin (neoheparin) or chondroitin sulfate (neoCS, neoCS) were produced and evaluated for potential anticancer activities.

Test [2] relates to MDA-MB-231 breast cancer tumors. Nature of the test: Treatment of established MDA-MB-231 tumors in nude mice. It counts as in vivo. Particulars: single 1.6 mg dose injected into the tumor followed by electroporation. The method, then: BALB/c nu/nu mice were anesthetized by intraperitoneal administration of a mixture of ketamine (42.8 mg/ml), xylazine (8.6 mg/ml), and acepromazine (1.4 mg/ml) at a dose of 1.8-2.0 ml/kg. Human breast cancer tumors were established following subcutaneous injection of 2×10^6 MDA-MB-231 cells in PBS. Two tumors were established on each mouse. Tumors were injected with a single 1.6 mg dose of chondroitin sulfate or chondroitin sulfate neoglycan in a 50 μl total volume. Immediately following injection, a caliper electrode was positioned on t wo sides of the tumor with contact on the skin. An electrical pulse was applied to the tumor through the electrodes with a BTS EC830 power supply (Genetronics, Inc., San Diego, Calif.). The tumors were measured with calipers and tumor volumes calculated according to the equation: V=(L×W2)×0.5. The results reflect two separate experiments in which one tumor was treated with chondroitin sulfate and the second tumor on the same animal was treated with neoCS. Both experiments included 7 tumors per treatment group.
Therefore, chondroitin sulfate neoglycan was used for evaluation of in vivo neoglycan activity. […] Two tumors per animal developed and were measured just prior to treatment. […] The size of each tumor was determined 48 hours later and at several subsequent time points.

The test system of the next test is ARP-1 cells. Nature of the test: Apoptosis by Annexin V-FITC staining and PI exclusion, ARP-1. Particulars: discussion summary of Annexin V and TUNEL results. It counts as cell-based, human. The method, then: (§1) ARP-1 cells and MDA-MB-231 cells were treated with media only, 32 μg/ml GAG chains and 32 μg/ml neoglycans. The ARP-1 cells were harvested following a 48 hour incubation period and the MDA-MB-231 cells were harvested after a 96 hour incubation period. The induction of apoptosis was determined by staining with fluorescein isothiocyanated-labeled Annexin V (Annexin V-FITC, CALTAG Laboratories, Burlingame, Calif.) following the manufacturer's instructions. Just prior to analysis, 0.5 mg/ml propidium iodide (PI, Sigma, St Louis, Mo.) in PBS, pH. 7.4 was added. Flow cytometry was performed with a Beckman Dickenson (Mountain View, Calif.) FACScan using Cellquest 1.2 software. Annexin V-FITC positive, PI negative cells were considered apoptotic.
(§2) Annexin-V binds to phosphatidylserine which is on the inner cytoplasmic membrane of healthy cells and on the outer cytoplasmic membrane of apoptotic cells .

For test [3], the system named is ARP-1 multiple myeloma cell line. Nature of the test: MTT cell viability assay, ARP-1 cells. Particulars: 500 μg/ml (FIG. 1 legend), 72 hours. In kind it is cell-based, human. The source says:
ARK, ARP-1, and CAG cells are B lymphoid cell lines established at the Arkansas Cancer Research Center from bone marrow aspirates of multiple myeloma patients (Ridley, Xiao et al. 1993). U266 is a multiple myeloma cell line that was obtained from the American Type Culture Collection (ATCC, Manassas, Va.). ARH-77 cells (ATCC, Manassas, Va.) were established from the peripheral blood of a patient with plasma cell leukemia (Burk, Drewinko et al. 1978). Peripheral blood mononuclear cells (PBMCs) were collected from healthy donors by Ficol-Hypaque separation of whole blood and were mitogen activated for 3 days with 2.5 μg/ml PHA (Sigma, St Louis, Mo.) prior to neoglycan treatment. The cell lines and peripheral blood mononuclear cells were grown in RPMI 1640 supplemented with 10% fetal bovine serum, 2 mM L-glutamine, 1 00 U/ml penicillin and 100 μg/ml streptomycin sulfate. […]
Cells were plated in the appropriate media on 96-well plates in a 100 μl total volume. […] Cell viability was determined based mitochondrial conversion of 3[4,5-Dimethylthiazol-2-yl]-2,5-diphenyltetrazolium bromide (MTT, Sigma, St Louis, Mo.) to formazan. […] The plates were gently agitated until the color reaction was uniform and the OD540 was determined using a microplate reader. […]
For orientation: Formazan colour is commonly taken as a measure of viable cells.

The test system of the next test is MDA-MB-231 cells. Nature of the test: Apoptosis by Annexin V-FITC staining and PI exclusion, MDA-MB-231. Particulars: discussion summary of Annexin V and TUNEL results. It counts as cell-based, human. The method, then:
as §1, §2

In the case of chondroitin sulfate, the “effect on multiple myeloma cell viability / growth” value in test [1] is given as “no growth reducing affect”. Besides, the “effect on established MDA-MB-231 tumors / tumor burden” value in test [2] was “does not reduce the tumor burden”. In addition, the “induction of apoptosis in ARP-1 cell line (FIG. 2)” value in the test on ARP-1 cells was “do not induce apoptosis”. Also, the “effect of native GAG chains on cell proliferation” value in test [3] is reported as “no affect”. Moreover, the “induction of apoptosis in MDA-MB-231 cell line (FIG. 2)” value in the test on MDA-MB-231 cells was “do not induce apoptosis”.
In the case of heparin, the “effect on multiple myeloma cell viability / growth” value in test [1] is recorded as “no growth reducing affect”. The “induction of apoptosis in ARP-1 cell line (FIG. 2)” value in the test with ARP-1 cells is given as “do not induce apoptosis”. Moreover, the “effect of native GAG chains on cell proliferation” value in test [3] is recorded as “slightly enhances cell proliferation”. The “induction of apoptosis in MDA-MB-231 cell line (FIG. 2)” value in the test on MDA-MB-231 cells is reported as “do not induce apoptosis”.
